In patent US12667104B2, “Herbicidal compositions” (Yissum Research Development Company of the Hebrew …, priority 2019, dated 2026):

Tested on: weeds
Assay: Weed control: small scale field experiment (1 m×1 m plots)
Assay type: in vivo
Conditions: for herbicidal effect category, 30 days: 30 days after the treatment; for herbicidal effect category, 30 days / herbicidal effect category, 12 days: 1 m×1 m plots, sprayed at 100 liter per hectare, concentration C (% by weight) per composition; for herbicidal effect (in words): small scale field plots, summary of Table 1; for herbicidal effect category, 12 days: 12 days after the treatment
Experimental: The active components(s), the concentration of the dissolved/suspended active components in the aqueous composition (C, expressed as % by weight of the composition) and the mixing ratios in case of multiple components are tabulated in Table 1.
Compositions 1-A to 1-L, 2-O, 2-P and 3-Q to 3-V were prepared by dissolving water-soluble powders or pellets in water, or adding to water sparingly soluble powders, or combination of both, at the concentrations set out in Table 1, to form sprayable solutions/suspensions.
The herbicidal compositions were sprayed at rate of application of 100 liter per hectare.
The herbicidal effect was determined 5, 12 and 30 days after the treatment. To this end, five categories were defined: • A category: complete control of the weeds was achieved. • B category: severe damage was caused to the weeds. • C category: some damage was caused to the weeds. • D category: minor damage was caused to the weeds. • E category: no damage was caused to the weeds.

Row | Structure (SMILES) | herbicidal effect category, 30 days | herbicidal effect (in words) | herbicidal effect category, 12 days
1 | [Ca+2].[OH-].[OH-] [Composition 1-G, Ca(OH)2] | D+ | poor activity | –
2 | O=C([O-])O.[K+] [Composition 1-F, KHCO3] | C+ | – | –
3 | [K+].[OH-] [Composition 1-D, KOH] | B+ | – | –
4 | O=C([O-])O.O=C([O-])O.[Ca+2] [Composition 1-I, Ca(HCO3)2] | – | poor activity | D+
5 | [Na+].[OH-] [Composition 1-A, NaOH] | B+ | – | –
6 | O=C([O-])O.[Na+] [Composition 1-C, NaHCO3] | – | – | D+
